# In patent US8946283B2, “Composition for preventing or treating obesity, dyslipidemia, fatty liver or diabetes containing indole-3-carbinol derivative as active ingredient” (Industry-Academic Cooperation Foundation, Yonsei University, priority 2011, dated 2015):
# Tests used:
# 3T3-L1 cells = assay: Inhibition of adipocyte differentiation, Oil Red O staining of triglyceride; format: cell-based, mouse; settings: for differentiation of the preadipocytes 3T3L1: 0.1, 1, 10, 50 and 100 μM, 14 days, vs DMSO control; for triglyceride accumulation in cells: 3T3-L1 cells, FIGS. 1-3
# Method: Mouse adipocyte cell line (3T3-L1) was used to investigate the effect of various indole-3-carbinol derivatives on differentiation and growth of adipocytes. The preadipocytes, 3T3-L1 cells, were seeded on a 12-well plate and cultured to confluency using Dulbecco's modified Eagle's medium (DMEM) containing 1% penicillin-streptomycin, 1% nonessential amino acid and 10% fatal bovine serum (FBS), in a 5% CO2 incubator at 37° C. The 3T3-L1 cells grown to confluency were cultured for 2 days in MDI medium containing 0.5 mM isobutylmethylxanthine, 1 μM dexamethasone and 1 μg/mL insulin to differentiate them into adipocytes. Then, the cells were further cultivated in DMEM containing 1 μg/mL insulin to differentiate them into mature adipocytes. The cells were further cultured for 10 more days while replacing DMEM every other day to obtain fully differentiated adipocytes.
# From the first day when MDI was added to the 3T3-L1 cells, 16 indole-3-carbinol derivative compounds were treated at concentrations of 0.1, 1, 10, 50 and 100 μM with 2-day intervals. The structure and molecular weight of the 16 indole-3-carbinol derivatives (B518, B521, B525, B528, B538, B540, B542, B544, B545, B546, B547, B549, B551, B556, B558 and B561) are described in Table 1. The derivative compounds were used after being dissolved in DMSO. Only DMSO was added to the negative control group.
# After culturing for a total of 14 days, the medium was removed when the differentiation was completed and lipid droplets in the differentiated adipocytes were stained. For this, the cells were washed twice with phosphate buffered saline (PBS), fixed in 10% buffered neutral formalin (BNF) for 1 hour, washed once again with PBS, stained for 1 hour by adding 1 mL of Oil Red O dye, which specifically stains fat red, on the 12-well plate, and washed twice with distilled water. In order to measure the level of triglyceride contained in the differentiated 3T3-L1 cells, the stained lipid droplets were dissolved in 1 mL of isobutanol and optical density (OD) value was measured at 600 nm.
# [1] = Liver weight and lipid level in liver tissue of mice fed high-fat test diet; format: in vivo, C57BL/6J mice; settings: 0.05% in high-fat diet, 10 weeks
# Method: (§1) The obesity-inducing control diet used in the test was high-fat diet (HFD: 40% fat calorie, 17 g lard+3% corn oil/100 g diet). Diets supplemented with indole-3-carbinol derivatives (B525 and B528) had the same composition as HFD, except that each derivative was included at 0.05% (see Table 2). The diabetic drug metformin was added at 0.1% or the hyperlipidemic drug atorvastatin was added at 0.01% to HFD as controls. The normal diet group (Chow) was fed with commercially available rodent chow.
# (§2) 56 5-week-old male C57BL/6J mice (Orient, Korea) were accustomed to the laboratory environment for 1 week while feeding solid feed. Then, they were randomly divided into normal diet, high-fat diet and test groups (n=8/group) and bred for a total of 10 weeks. The diet was given between 10 and 11 a.m. every day together with water. Food intake was measured every day and body weight was measured once a week. In order to avoid transient body weight increase after feed intake, body weight was measured 2 hours after removing the feed. After fasting the test animal for at least 12 hours and anesthetizing with diethyl ether, blood, liver and visceral fat (epididymal fat, perirenal fat, mesenteric fat and retroperitoneal fat) were taken and weighed after washing with 0.1 M PBS (pH 7.4). Blood taken from the abdominal aorta was centrifuged at 1000×g for 15 minutes to separate the plasma.
# Lipids were extracted from the liver tissue according to Folch et al.'s method Folch J et al., J Biol. Chem. 226: 497-509 (1957)). After adding 1 mL of distilled water to 0.25 g of liver tissue, the liver tissue was homogenized using a Polytron homogenizer (IKA-Werke GmbH & Co., Ultra-Turrax, Staufen, Germany). After adding 5 mL of chloroform:methanol solution (2:1, v/v) to the homogenate and mixing well, the mixture was centrifuged at 1000×g for 10 minutes. After adding 2 mL of chloroform:methanol solution (2:1, v/v) again to the supernatant, the same procedure was repeated to completely separate the lipid components of the liver. After adding 3 mL of chloroform:methanol:0.05% CaCl2 (3:48:47, v/v/v) solution to the remaining pellets and mixing well for 1 minute, followed by centrifugation at 1000×g for 10 minutes, the resulting pellets were completely dried with nitrogen gas. The dried lipids were dissolved in 1 mL of methanol and then analyzed.
# The same kit (Bio Clinical System) as that used for the plasma analysis was used to measure the triglyceride and cholesterol levels of the liver tissue.
# [2] = Body weight gain and visceral fat weight of mice fed high-fat test diet; format: in vivo, C57BL/6J mice; settings: 0.05% in high-fat diet, 10 weeks
# Method: as §1, §2
# [3] = Fasting blood sugar and oral glucose tolerance test in mice fed high-fat test diet; format: in vivo, C57BL/6J mice
# Method: as §1, §2
# On week 8 after feeding the test diet, oral glucose tolerance test was performed for all the groups. After fasting the mouse for 16 hours, glucose (2 g glucose/10 mL distilled water/kg body weight) was orally administered. Before and 15, 30, 60 and 120 minutes after the oral administration, the tail end was cut by about […] and blood was taken. Glucose level was measured using a glucose meter.
# [4] = Biochemical analysis of blood (plasma lipids) of mice fed high-fat test diet; format: in vivo, C57BL/6J mice; settings: 0.05% in high-fat diet, 10 weeks
# Method: as §1, §2
# After 10 weeks of breeding, total cholesterol, triglyceride and glucose levels in the plasma and lipid level in the liver tissue were measured as follows. Total cholesterol, triglyceride and free fatty acid levels in the plasma were measured twice for each using a commercially available kit (Bio Clinical System).
compound,measurement,setting,value
"O=C1N(CCc2ccccc2)c2ccc(Br)cc2C1(O)c1c[nH]c2ccccc12 (stereo not drawn) [B518, 5′-Bromo-3′-hydroxy-1′-(2-phenylethyl)-1′,3′-dihydro-1H,2′H-3,3′-biindol-2′-one]",differentiation of the preadipocytes 3T3L1,3T3-L1 cells,reduced the differentiation of the preadipocytes 3T3L1 in a concentration-dependent manner
same,triglyceride accumulation in cells,3T3-L1 cells,effectively reduce triglyceride accumulation in cells
"CN1C(=O)C(O)(c2c[nH]c3ccccc23)c2cc(Cl)ccc21 (stereo not drawn) [B521, 5′-Chloro-3′-hydroxy-1′-methyl-1′,3′-dihydro-1H,2′H-3,3′-biindol-2′-one]",differentiation of the preadipocytes 3T3L1,3T3-L1 cells,reduced the differentiation of the preadipocytes 3T3L1 in a concentration-dependent manner
"C=CCN1C(=O)C(O)(c2c(C)[nH]c3ccccc23)c2cc(Br)ccc21 (stereo not drawn) [B525, 1′-Allyl-5′-bromo-3′-hydroxy-2-methyl-1′,3′-dihydro-1H,2′H-3,3′-biindol-2′-one]",differentiation of the preadipocytes 3T3L1,3T3-L1 cells,reduced the differentiation of the preadipocytes 3T3L1 in a concentration-dependent manner
same,triglyceride accumulation in cells,3T3-L1 cells,effectively reduce triglyceride accumulation in cells
same,appearance of liver tissue as compared to HFD,[1],smaller and darker liver tissue
same,decrease of cholesterol level in liver tissue as compared to HFD,[1],22%
same,decrease of liver weight as compared to HFD,[1],26%
same,decrease of triglyceride level in liver tissue as compared to HFD,[1],18%
same,decrease of body weight gain as compared to HFD,[2],21%
same,reduction of total visceral fat weight as compared to HFD,[2],20%
same,"weight of epididymal fat, perirenal fat, mesenteric fat and retroperitoneal fat as compared to HFD",[2],significantly reduced
same,reduction of fasting blood sugar level as compared to HFD,"[3]; 0.05% in high-fat diet, 8 weeks",37%
same,effect on oral glucose tolerance compared to controls metformin and atorvastatin,"[3]; OGTT, week 8","excellent effect of improving oral glucose tolerance, better than the controls metformin and atorvastatin"
same,reduction of arteriosclerotic index in blood plasma as compared to HFD,[4],30%
same,reduction of total cholesterol level in blood plasma as compared to HFD,[4],18%
same,reduction of triglyceride level in blood plasma as compared to HFD,[4],32%
"O=C1N(CCc2ccccc2)c2ccccc2C1(O)c1c[nH]c2ccccc12 (stereo not drawn) [B538, 3′-Hydroxy-1′-(2-phenylethyl)-1′,3′-dihydro-1H,2′H-3,3′-biindol-2′-one]",differentiation of the preadipocytes 3T3L1,3T3-L1 cells,reduced the differentiation of the preadipocytes 3T3L1 in a concentration-dependent manner
same,triglyceride accumulation in cells,3T3-L1 cells,effectively reduce triglyceride accumulation in cells
"CCCCN1C(=O)C(O)(c2c[nH]c3ccccc23)c2cc(Br)ccc21 (stereo not drawn) [B540, 5′-Bromo-1′-butyl-3′-hydroxy-1′,3′-dihydro-1H,2′H-3,3′-biindol-2′-one]",differentiation of the preadipocytes 3T3L1,3T3-L1 cells,reduced the differentiation of the preadipocytes 3T3L1 in a concentration-dependent manner
"O=C1N(Cc2ccccc2)c2ccccc2C1(O)c1c[nH]c2ccccc12 (stereo not drawn) [B542, 1′-Benzyl-3′-hydroxy-1′,3′-dihydro-1H,2′H-3,3′-biindol-2′-one]",differentiation of the preadipocytes 3T3L1,3T3-L1 cells,reduced the differentiation of the preadipocytes 3T3L1 in a concentration-dependent manner
"CCN1C(=O)C(O)(c2c[nH]c3ccccc23)c2cc(Br)ccc21 (stereo not drawn) [B544, 5′-Bromo-1′-ethyl-3′-hydroxy-1′,3′-dihydro-1H,2′H-3,3′-biindol-2′-one]",differentiation of the preadipocytes 3T3L1,3T3-L1 cells,reduced the differentiation of the preadipocytes 3T3L1 in a concentration-dependent manner
"Cc1ccc(CN2C(=O)C(O)(c3c[nH]c4ccccc34)c3ccccc32)cc1 (stereo not drawn) [B545, 3′-Hydroxy-1′-(4-methylbenzyl)-1′,3′-dihydro-1H,2′H-3,3′-biindol-2′-one]",differentiation of the preadipocytes 3T3L1,3T3-L1 cells,reduced the differentiation of the preadipocytes 3T3L1 in a concentration-dependent manner
"O=C1N(Cc2ccc(Cl)cc2)c2ccccc2C1(O)c1c[nH]c2ccccc12 (stereo not drawn) [B546, 1′-(4-Chlorobenzyl)-3′-hydroxy-1′,3′-dihydro-1H,2′H-3,3′-biindol-2′-one]",differentiation of the preadipocytes 3T3L1,3T3-L1 cells,reduced the differentiation of the preadipocytes 3T3L1 in a concentration-dependent manner
"Cc1[nH]c2ccccc2c1C1(O)C(=O)N(CCc2ccccc2)c2ccc(Cl)cc21 (stereo not drawn) [B547, 5′-Chloro-3′-hydroxy-2-methyl-1′-(2-phenylethyl)-1′,3′-dihydro-1H,2′H-3,3′-biindol-2′-one]",differentiation of the preadipocytes 3T3L1,3T3-L1 cells,reduced the differentiation of the preadipocytes 3T3L1 in a concentration-dependent manner
"Cc1ccc(C)c(CN2C(=O)C(O)(c3c(C)[nH]c4ccccc34)c3ccccc32)c1 (stereo not drawn) [B549, 1′-(2,5-Dimethylbenzyl)-3′-hydroxy-2-methyl-1′,3′-dihydro-1H,2′H-3,3′-biindol-2′-one]",differentiation of the preadipocytes 3T3L1,3T3-L1 cells,reduced the differentiation of the preadipocytes 3T3L1 in a concentration-dependent manner
"Cc1[nH]c2ccccc2c1C1(O)C(=O)N(Cc2cccs2)c2ccccc21 (stereo not drawn) [B551, 3′-Hydroxy-2-methyl-1′-(2-thienylmethyl)-1′,3′-dihydro-1H,2′H-3,3′-biindol-2′-one]",differentiation of the preadipocytes 3T3L1,3T3-L1 cells,reduced the differentiation of the preadipocytes 3T3L1 in a concentration-dependent manner
"Cc1ccc(OCCN2C(=O)C(O)(c3c(C)[nH]c4ccccc34)c3ccccc32)cc1 (stereo not drawn) [B556, 3′-Hydroxy-2-methyl-1′-[2-(4-methylphenoxy)ethyl]-1′,3′-dihydro-1H,2′H-3,3′-biindol-2′-one]",differentiation of the preadipocytes 3T3L1,3T3-L1 cells,reduced the differentiation of the preadipocytes 3T3L1 in a concentration-dependent manner
"COc1ccccc1OCCN1C(=O)C(O)(c2c(C)[nH]c3ccccc23)c2ccccc21 (stereo not drawn) [B558, 3′-Hydroxy-1′-[2-(2-methoxyphenoxy)ethyl]-2-methyl-1′,3′-dihydro-1H,2′H-3,3′-biindol-2′-one]",differentiation of the preadipocytes 3T3L1,3T3-L1 cells,reduced the differentiation of the preadipocytes 3T3L1 in a concentration-dependent manner
"CC(=O)c1[nH]c2ccccc2c1C(=O)O [B561, 2-Acetyl-1H-indole-3-carboxylic acid]",differentiation of the preadipocytes 3T3L1,3T3-L1 cells,reduced the differentiation of the preadipocytes 3T3L1 in a concentration-dependent manner
